Test results as given in US6632832B1 (Dabur Research Foundation, priority 2002, dated 2003).
≈ marks a conversion by molar mass, not a printed value.

How the values were obtained:
β-receptor = settings: preclinical studies; cited from earlier work
Acute toxicity in mice = type: in vivo; settings: Swiss albino mice weighing 25 grams, observed for two weeks
Description: Acute toxicity studies were performed using two preferred routes of administration: intravenous and oral administration.

[1] = system: PDGF dependent proliferation in human pancreatic cancer cells (MiaPaCa2); assay: PDGF dependent proliferation, percent viable cells by MTT in sera free conditions; type: cell-based; settings: Carvedilol 20 ug/ml for 16 hours, then varying PDGF for 48 hours
Description: Briefly, 10000 human pancreatic cancer cells (MiaPaCa2) were seeded per well in a 96-well culture plate in DMEM containing 5% fetal calf serum (FCS). All experiments were carried out in triplicates at 37° C. in a CO2 incubator. The cells were incubated for a period of 12 hours, washed once with PBS and the medium was changed to DMEM without FCS. […] The untreated control cells were treated with 1% DMSO in DMEM. […] The percent viable cells in absence and presence of Carvedilol was determined in an MTT assay in vitro.

[2] = system: Human Colon, Ovary, melanoma, Leukemia, Glioblastoma, Prostate, oral and Lung tumor cell lines; assay: MTT cytotoxicity assay, summary over the tumor cell line panel; type: cell-based
Description: (§1) After 72 hours, the assay was terminated and percent cyotoxicities calculated.

Protein Kinase C (PKC) = assay: PKC activity ELISA on lysates of treated MiaPaCa2 cells; type: cell-based, human; settings: 5-100 ug/ml for 15 minutes
Description: Briefly 0.5×10^6 cells of human pancreatic cancer cells (MiaPaCa2) were plated per well in 6 well tissue culture plates in 2 ml of DMEM containing 10% Fetal calf serum. The cells were incubated overnight at 37° C. and 5% CO2. The medium was changed to DMEM without serum. […] The control cells were treated with 1% DMSO in DMEM. […] The cells were scraped with sterile cell scrapers, and spun at 1500 rpm for 5 minutes. The cell pellet was dissolved in 1 ml of ice cold sample preparation buffer (50 mM Tris-HCl, 50 mM 2-mercaptoethanol, 10 mM EGTA, 5 mM EDTA, 1 mM PMSF, 10 mM Benzamidine, pH 7.5). The cell pellets were sonicated four to five times each with time intervals of 5-10 seconds. The cells were centrifuged at 100,000×g for a period of 60 minutes at 4° C. The supernatant was aspirated from each set of experiments. The reaction mixture for quantitation of the PKC activity contained 25 mM Tris-HCl (pH7.0), 3 mM Mgc12, 0.1 mM ATP, 2 mM CaCl2, 50 ug/ml Phosphatidylserine, 0.5 mM EDTA, 1 mM EGTA, and 5 mM 2 mercaptoethanol. The lysates from the cells not treated with Carvedilol were the control experiments. The reaction mixture was preincubated for 5 minutes at 25° C. […] The optical density was read at 492 nm, and the PKC activity expressed as percent of that in control cells.

U87.MG (glioblastoma) = assay: MTT cytotoxicity assay, 72 hours; type: cell-based, human; settings: 72 h MTT
Description: as §1

PTC (colon) = assay: MTT cytotoxicity assay, 72 hours; type: cell-based, human; settings: 72 h MTT
Description: as §1

B16F10 (melanoma) = assay: MTT cytotoxicity assay, 72 hours; type: cell-based, human; settings: 72 h MTT
Description: as §1

MiaPaCa.2 (pancreas) = assay: MTT cytotoxicity assay, 72 hours; type: cell-based, human; settings: 72 h MTT
Description: as §1

DU145 (prostate) = assay: MTT cytotoxicity assay, 72 hours; type: cell-based, human; settings: 72 h MTT
Description: as §1

KB (oral) = assay: MTT cytotoxicity assay, 72 hours; type: cell-based, human; settings: 72 h MTT
Description: as §1

PA1 (ovary) = assay: MTT cytotoxicity assay, 72 hours; type: cell-based, human; settings: 72 h MTT
Description: as §1

HBL100 (breast) = assay: MTT cytotoxicity assay, 72 hours; type: cell-based, human; settings: 72 h MTT
Description: as §1

L132 (lung) = assay: MTT cytotoxicity assay, 72 hours; type: cell-based, human; settings: 72 h MTT
Description: as §1

[3] = system: B16F10 melanoma tumor xenografts; assay: B16F10 melanoma xenograft model in nude mice; type: in vivo, Balb/c athymic mice; settings: for tumor inhibition based on tumor volumes compared with untreated controls: oral gavage once a day, Day 19
Description: Melanoma tumor xenografts were initiated in Balb/c athymic mice by subcutaneous inoculation of a single cell suspension of B16F10 cells (10×10^6 cells/100 μL). The tumor-bearing mice were divided into three groups of 4 animals each. […] The third group served as control. […] The anti-tumor activity was monitored by measuring the tumors using a vernier caliper every fourth day and calculating volumes using the formula 0.4×W^2×L(W=smaller dia, L=larger dia,).

[4] = system: human pancreatic cancer cells (MiaPaCa2); assay: Cytotoxicity abrogation assay with intracellular blocking of PI3 kinase by Wortmannin; type: cell-based
Description: (§2) Briefly, 10000 human pancreatic cancer cells (MiaPaCa2) were seeded per well in a 96-well culture plate in DMEM containing 5% FCS. All experiments were carried out in triplicate at 37° C. in CO2 incubator. The plates were incubated overnight to allow complete reattachment of the cells. Subsequently, the medium was replaced with DMEM. The cells were incubated with varying concentrations of Wortmannin,the specific inhibitor of PI3 kinase for a period of three hours. Wortmannin was dissolved in 0.5% DMSO. The control cells were treated with 0.5% DMSO. The cells were washed with PBS, and the medium was changed to fresh DMEM.

Cyclooxygenase 2 enzyme = assay: COX2 activity by PGE2 quantitation in MiaPaCa2 cells; type: cell-based, human
Description: 1×10^6 human pancreatic cancer cells (MiaPaCa2) were plated in 6 well plates in RPMI containing 10% FCS. The cells were incubated for a period of 24 hours at 37° C. in 5% CO2. The medium was changed to DMEM without serum. […] All experiments were carried out in duplicates. […] The medium was aspirated to remove Bisindolemaleimide, and the cells were washed twice with PBS. […] The cells were incubated at 37° C. for one hour. Indomethacin at a concentration of 10 ug/ml was added to the wells to block the COX enzyme. […] The cells were lysed (2.5% dodecyltrimethylammonium) and incubated for 10 minutes at room temperature. The cell lysates were transferred to microtitre plate coated with goat anti mouse Ig coated plate. 50 microliter of PGE2 standards ranging from 2.5 to 320 pg/ml were added to the microtitre plate in duplicates. 50 microliter of mouse anti PGE2 and 50 microliter of PGE2 conjugated peroxidase was added to the wells. The plate was covered and incubated at room temperature for one hour on a microtitre plate shaker. The wells were aspirated and washed 4 times with suitable was buffer. 150 microlire of enzyme substrate was added to all the wells. […] The OD was read at 450 nm.
The levels of secreted and intracellular PGE2 were quantitated in cells treated with or without bisindolemaleimide.

[5] = system: human pancreatic cancer cells (MiaPaCa2); assay: Cytotoxicity abrogation assay with intracellular blocking of PKC by Bisindolylmaleimide; type: cell-based
Description: as §2, with “of Bisindolylmaleimide, the” for “of Wortmannin,the”, “of PKC” for “of PI3 kinase”, “hours. Bisindolylmaleimide” for “hours. Wortmannin”, “in 1% DMSO” for “in 0.5% DMSO.”, “with 1%” for “with 0.5%”

[6] = system: EGF dependent proliferation in human pancreatic cancer cells (MiaPaCa2); assay: EGF dependent proliferation, percent viable cells by MTT in sera free conditions; type: cell-based; set-up: dose or concentration left out as unconfirmed; settings: Carvedilol for 16 hours, then varying EGF for 48 hours
Description: Briefly, 10000 human pancreatic cancer cells (MiaPaCa2) were seeded per well in a 96-well culture plate in DMEM containing 5% FCS. All experiments were carried out in triplicates at 37° C. in a CO2 incubator. The cells were incubated for a period of 12 hours, washed once with PBS and the medium was changed to DMEM without Fetal calf serum (FCS). […] The untreated control cells were treated with 1% DMSO in DMEM. The cells were washed with PBS and incubated with varying concentrations of EGF in DMEM without FCS for a period of 48 hours. The percent viable cells in absence and presence of Carvedilol was determined in an MTT assay in vitro.

For `COc1cc(O)ccc1OCCNCC(O)COc1cccc2[nH]c3ccccc3c12` (stereo not drawn) [4′-hydroxyphenyl metabolite], the “potency for β-blockade relative to carvedilol” value (β-receptor) is listed as “approximately 13 times”.
In the case of `COc1ccccc1OCCNCC(O)COc1cccc2[nH]c3ccccc3c12` (racemic) [Carvedilol, (±)-1-(carbazol-4-yloxy)-3-[(2-(o-methoxyphenoxy)ethyl]amino]-2-propanol], the safe dose (Acute toxicity in mice; i.v.) is reported as 0.15 mg, the safe dose (Acute toxicity in mice; oral) is reported as 3 mg and the “effect on PDGF dependent proliferation (FIG. 3)” value [1] is reported as “inhibits the PDGF dependent proliferation in human pancreatic cancer cells in a dose dependent manner”. The “cytotoxicity at a fixed concentration (FIG. 1)” value ([2]; 20 μg/ml, all of the above-mentioned tumor cell lines, except oral) was “high cytotoxicity effect”, the ED50 values ([2]; Colon, Ovary, melanoma, Leukemia, Glioblastoma, Prostate, oral and Lung tumor cell lines) was “less than 20 μg/ml” and the “effect on PKC activity (FIG. 4)” value (Protein Kinase C (PKC)) was “inhibits the PKC activity in a dose dependent manner”. The ED50 (U87.MG (glioblastoma); U87.MG (glioblastoma)) was 14.5 ± 2.2 µg/mL (≈ 35.7 µM), the ED50 (U87.MG (glioblastoma); U87MG (Glioblastoma), Table 2) was 14.5 ± 2.2 µg/mL (≈ 35.7 µM) and the ED50 (PTC (colon); PTC (Colon), Table 2) was 7.0 ± 0.7 µg/mL (≈ 17.2 µM). It also gave an ED50 (PTC (colon); PTC (colon)) of 7.0 ± 0.7 µg/mL (≈ 17.2 µM), an ED50 (B16F10 (melanoma); B16.F10 (Melanoma), Table 2) of 10.5 ± 1.7 µg/mL (≈ 25.8 µM) and an ED50 (B16F10 (melanoma); B16F10 (melanoma)) of 10.5 ± 1.7 µg/mL (≈ 25.8 µM). For the same compound, the ED50 (MiaPaCa.2 (pancreas); MiaPaCa.2 (Pancreas), Table 2) was 33.0 ± 4.6 µg/mL (≈ 81.2 µM), the ED50 (MiaPaCa.2 (pancreas); MiaPaCa.2 (pancreas)) was 33.0 ± 4.6 µg/mL (≈ 81.2 µM) and the ED50 (DU145 (prostate)) was 9.0 ± 0.9 µg/mL (≈ 22.1 µM). For the same compound, the ED50 (KB (oral); KB (Oral), Table 2) was 12.0 ± 1.8 µg/mL (≈ 29.5 µM), the ED50 (KB (oral); KB (oral)) was 12.0 ± 1.8 µg/mL (≈ 29.5 µM) and the ED50 (PA1 (ovary); PA1 (ovary)) was 11.5 ± 2.1 µg/mL (≈ 28.3 µM). It also gave an ED50 (PA1 (ovary); PA-1 (Ovary), Table 2) of 11.5 ± 2.1 µg/mL (≈ 28.3 µM), an ED50 (HBL100 (breast); HBL100 (Breast), Table 2) of 29.0 ± 4.2 µg/mL (≈ 71.3 µM) and an ED50 (HBL100 (breast); HBL100 (breast)) of 29.0 ± 4.2 µg/mL (≈ 71.3 µM). The ED50 (L132 (lung); L132 (Lung), Table 2) was 16.0 ± 3.1 µg/mL (≈ 39.4 µM), the ED50 (L132 (lung); L132 (lung)) was 16.0 ± 3.1 µg/mL (≈ 39.4 µM) and the “tumor inhibition based on tumor volumes compared with untreated controls” value ([3]; 300 ug/day) was 37.3%. For the same compound, the “tumor inhibition based on tumor volumes compared with untreated controls” value ([3]; 600 ug/day) was 59.1%, the “pattern of tumor growth (FIG. 6)” value ([3]; both doses (300 and 600 ug/day oral)) was “delayed tumor growth and tumor regression” and the cytotoxicity at 20 µg/mL ([4]; MIA PaCa-2, 48 h, read-out: % Cytotoxicity of Carvedilol (20 ug/ml), MiaPaCa2, 48 hours, Wortamannin Nil) was 50%. The cytotoxicity at 20 µg/mL ([4]; MIA PaCa-2, read-out: % Cytotoxicity of Carvedilol (20 ug/ml), MiaPaCa2, 48 hours, preincubated with Wortamannin 0.5 nM) was 22%, the cytotoxicity at 20 µg/mL ([4]; MIA PaCa-2, read-out: % Cytotoxicity of Carvedilol (20 ug/ml), MiaPaCa2, 48 hours, preincubated with Wortamannin 1.0 nM) was 20% and the cytotoxicity at 20 µg/mL ([4]; MIA PaCa-2, read-out: % Cytotoxicity of Carvedilol (20 ug/ml), MiaPaCa2, 48 hours, preincubated with Wortamannin 1.5 nM) was 19%. The cytotoxicity at 20 µg/mL ([4]; MIA PaCa-2, read-out: % Cytotoxicity of Carvedilol (20 ug/ml), MiaPaCa2, 48 hours, preincubated with Wortamannin 2.0 nM) was 18%, the “effect on COX2 activity (FIG. 5)” value (Cyclooxygenase 2 enzyme; MiaPaCa2, 10 ug/ml and 20 ug/ml for 4 hours, secreted and intracellular PGE2) was “inhibits the COX2 activity” and the “effect on COX 2 activity after blocking of PKC” value (Cyclooxygenase 2 enzyme; MiaPaCa2 preincubated with Bisindolemaleimide (1 uM) for 4 hours) was “abrogates the effect of Carvedilol on COX 2 activity”. For the same compound, the cytotoxicity at 20 µg/mL ([5]; MIA PaCa-2, 48 h, read-out: % Cytotoxicity of Carvedilol (20 ug/ml), MiaPaCa2, 48 hours, Bisindolemaleimide Nil) was 50%, the cytotoxicity at 20 µg/mL ([5]; MIA PaCa-2, read-out: % Cytotoxicity of Carvedilol (20 ug/ml), MiaPaCa2, 48 hours, preincubated with Bisindolemaleimide 1.0 uM) was 22% and the cytotoxicity at 20 µg/mL ([5]; MIA PaCa-2, read-out: % Cytotoxicity of Carvedilol (20 ug/ml), MiaPaCa2, 48 hours, preincubated with Bisindolemaleimide 2.5 uM) was 20%. The cytotoxicity at 20 µg/mL ([5]; MIA PaCa-2, read-out: % Cytotoxicity of Carvedilol (20 ug/ml), MiaPaCa2, 48 hours, preincubated with Bisindolemaleimide 5.0 uM) was 20% and the “effect on EGF dependent proliferation (FIG. 2)” value [6] was “inhibits the EGF dependent proliferation in pancreatic cancer cells in a dose dependent manner”.
